Measured values taken from PMC3639963, “A New Class of Small Molecule Inhibitor of BMP Signaling” (PLoS ONE, 2013).

What was measured:
Assay in all cases: DSF thermal shift
Format in all cases: binding
Conditions in all cases: 10 µM inhibitor; read-out: Tm shift
Haspin = target: T1, Haspin (Homo sapiens, UniProt Q8TF76)
T1 construct: purchased Nanosyn (enzymatic panel); SGC in-house recombinant human kinases (DSF panel); Invitrogen (ALK1-6)
T1 sequence (Q8TF76 1-798): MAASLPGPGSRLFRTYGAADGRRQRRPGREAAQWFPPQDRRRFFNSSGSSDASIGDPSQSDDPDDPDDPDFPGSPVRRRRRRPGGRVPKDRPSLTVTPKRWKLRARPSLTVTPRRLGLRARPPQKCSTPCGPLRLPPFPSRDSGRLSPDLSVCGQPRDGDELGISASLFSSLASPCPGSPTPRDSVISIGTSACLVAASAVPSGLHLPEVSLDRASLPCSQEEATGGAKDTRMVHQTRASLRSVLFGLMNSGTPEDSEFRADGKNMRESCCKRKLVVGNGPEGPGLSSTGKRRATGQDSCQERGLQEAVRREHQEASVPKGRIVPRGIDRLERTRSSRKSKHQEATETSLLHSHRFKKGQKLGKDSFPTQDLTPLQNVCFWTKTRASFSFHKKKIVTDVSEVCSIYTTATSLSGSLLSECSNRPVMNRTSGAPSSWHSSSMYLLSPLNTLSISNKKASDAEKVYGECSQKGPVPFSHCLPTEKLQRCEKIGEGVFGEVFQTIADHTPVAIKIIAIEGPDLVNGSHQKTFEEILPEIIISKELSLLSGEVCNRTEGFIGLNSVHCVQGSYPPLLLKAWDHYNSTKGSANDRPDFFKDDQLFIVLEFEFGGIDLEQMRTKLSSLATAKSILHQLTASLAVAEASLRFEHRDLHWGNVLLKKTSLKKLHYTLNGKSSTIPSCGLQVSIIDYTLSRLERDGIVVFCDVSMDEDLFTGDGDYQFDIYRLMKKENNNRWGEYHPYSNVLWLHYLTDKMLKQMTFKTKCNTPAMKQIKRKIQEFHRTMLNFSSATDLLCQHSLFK
Protocol: (§1) Thermal melting experiments were performed using a Real Time PCR machine Mx3005p (Stratagene) with a protein concentration of 1–2 µM and 10 µM inhibitor as described previously, [25]. […] Recombinant human kinases for DSF screening were prepared by SGC using published methods, [36].

MST4 = target: T2, MST4 (Homo sapiens, UniProt Q9P289)
T2 construct: purchased Nanosyn (enzymatic panel); SGC in-house recombinant human kinases (DSF panel); Invitrogen (ALK1-6)
Protocol: as §1

NEK11 = target: T3, NEK11 (Homo sapiens, UniProt Q8NG66)
T3 construct: purchased Nanosyn (enzymatic panel); SGC in-house recombinant human kinases (DSF panel); Invitrogen (ALK1-6)
T3 sequence (Q8NG66 1-645): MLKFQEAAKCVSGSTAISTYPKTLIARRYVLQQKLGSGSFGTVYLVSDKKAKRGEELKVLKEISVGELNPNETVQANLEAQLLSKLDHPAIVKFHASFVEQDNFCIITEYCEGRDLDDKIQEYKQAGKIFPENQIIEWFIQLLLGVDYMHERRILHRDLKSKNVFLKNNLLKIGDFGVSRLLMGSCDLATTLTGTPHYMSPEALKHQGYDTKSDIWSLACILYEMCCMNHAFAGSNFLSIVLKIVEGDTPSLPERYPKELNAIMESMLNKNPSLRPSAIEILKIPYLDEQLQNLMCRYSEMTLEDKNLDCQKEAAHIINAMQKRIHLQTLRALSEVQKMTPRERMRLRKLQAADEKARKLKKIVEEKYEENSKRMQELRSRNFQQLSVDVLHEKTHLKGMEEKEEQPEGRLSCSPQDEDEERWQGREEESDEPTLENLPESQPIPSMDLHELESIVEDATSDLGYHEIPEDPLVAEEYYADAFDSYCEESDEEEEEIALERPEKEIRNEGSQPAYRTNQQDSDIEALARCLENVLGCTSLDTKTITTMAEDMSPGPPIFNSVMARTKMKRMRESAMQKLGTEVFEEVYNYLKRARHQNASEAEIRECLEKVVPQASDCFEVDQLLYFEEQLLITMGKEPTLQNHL
Protocol: as §1

NEK1 = target: T4, NEK1 (Homo sapiens, UniProt Q96PY6)
T4 construct: purchased Nanosyn (enzymatic panel); SGC in-house recombinant human kinases (DSF panel); Invitrogen (ALK1-6)
T4 sequence (Q96PY6 1-1258): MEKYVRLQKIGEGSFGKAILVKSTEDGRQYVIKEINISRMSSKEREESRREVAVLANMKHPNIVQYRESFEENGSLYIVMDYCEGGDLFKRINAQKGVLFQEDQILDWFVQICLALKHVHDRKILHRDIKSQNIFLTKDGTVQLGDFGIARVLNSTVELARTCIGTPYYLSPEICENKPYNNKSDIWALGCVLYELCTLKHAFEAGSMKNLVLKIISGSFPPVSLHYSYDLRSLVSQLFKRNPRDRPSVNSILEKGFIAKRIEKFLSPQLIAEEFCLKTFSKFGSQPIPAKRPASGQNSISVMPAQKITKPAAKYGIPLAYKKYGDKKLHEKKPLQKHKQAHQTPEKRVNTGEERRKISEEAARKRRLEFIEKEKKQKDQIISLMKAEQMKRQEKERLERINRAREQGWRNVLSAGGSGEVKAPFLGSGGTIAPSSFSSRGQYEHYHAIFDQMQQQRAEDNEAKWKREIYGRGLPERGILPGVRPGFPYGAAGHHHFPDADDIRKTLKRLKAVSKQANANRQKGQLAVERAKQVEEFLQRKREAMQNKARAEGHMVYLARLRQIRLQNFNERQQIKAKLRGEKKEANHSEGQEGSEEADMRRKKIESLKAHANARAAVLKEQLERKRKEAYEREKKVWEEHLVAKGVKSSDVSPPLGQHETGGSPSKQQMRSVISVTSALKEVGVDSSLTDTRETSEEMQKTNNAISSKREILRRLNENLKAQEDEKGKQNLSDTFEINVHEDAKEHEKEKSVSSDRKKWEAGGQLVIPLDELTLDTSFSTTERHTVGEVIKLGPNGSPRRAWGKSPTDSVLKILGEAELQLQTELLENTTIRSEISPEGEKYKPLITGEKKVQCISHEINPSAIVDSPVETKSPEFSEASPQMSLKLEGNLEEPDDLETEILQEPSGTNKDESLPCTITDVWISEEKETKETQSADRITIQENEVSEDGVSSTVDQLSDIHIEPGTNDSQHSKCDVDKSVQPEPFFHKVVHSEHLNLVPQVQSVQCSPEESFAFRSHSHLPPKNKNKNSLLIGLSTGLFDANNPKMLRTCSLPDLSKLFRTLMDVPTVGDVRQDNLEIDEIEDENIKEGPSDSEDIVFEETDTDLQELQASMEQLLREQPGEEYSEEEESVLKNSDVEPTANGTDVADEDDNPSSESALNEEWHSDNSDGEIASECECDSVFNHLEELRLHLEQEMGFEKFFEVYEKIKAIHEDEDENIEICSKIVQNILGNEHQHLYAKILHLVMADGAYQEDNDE
Protocol: as §1

FES = target: T5, FES (Homo sapiens, UniProt P07332)
T5 construct: purchased Nanosyn (enzymatic panel); SGC in-house recombinant human kinases (DSF panel); Invitrogen (ALK1-6)
Protocol: as §1

T2 sequence (Q9P289 whole entry): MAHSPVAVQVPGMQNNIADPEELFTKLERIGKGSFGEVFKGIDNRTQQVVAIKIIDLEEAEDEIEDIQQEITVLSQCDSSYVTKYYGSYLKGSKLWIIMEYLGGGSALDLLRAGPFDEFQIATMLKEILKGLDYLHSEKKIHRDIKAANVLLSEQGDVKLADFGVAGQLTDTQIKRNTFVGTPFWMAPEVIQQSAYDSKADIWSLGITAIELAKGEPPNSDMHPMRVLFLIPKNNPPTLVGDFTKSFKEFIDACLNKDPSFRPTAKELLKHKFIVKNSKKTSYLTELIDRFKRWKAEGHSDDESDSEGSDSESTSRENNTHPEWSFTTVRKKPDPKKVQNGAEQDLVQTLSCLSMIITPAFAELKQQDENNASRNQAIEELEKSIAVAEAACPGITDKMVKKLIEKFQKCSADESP
T5 sequence (P07332 whole entry): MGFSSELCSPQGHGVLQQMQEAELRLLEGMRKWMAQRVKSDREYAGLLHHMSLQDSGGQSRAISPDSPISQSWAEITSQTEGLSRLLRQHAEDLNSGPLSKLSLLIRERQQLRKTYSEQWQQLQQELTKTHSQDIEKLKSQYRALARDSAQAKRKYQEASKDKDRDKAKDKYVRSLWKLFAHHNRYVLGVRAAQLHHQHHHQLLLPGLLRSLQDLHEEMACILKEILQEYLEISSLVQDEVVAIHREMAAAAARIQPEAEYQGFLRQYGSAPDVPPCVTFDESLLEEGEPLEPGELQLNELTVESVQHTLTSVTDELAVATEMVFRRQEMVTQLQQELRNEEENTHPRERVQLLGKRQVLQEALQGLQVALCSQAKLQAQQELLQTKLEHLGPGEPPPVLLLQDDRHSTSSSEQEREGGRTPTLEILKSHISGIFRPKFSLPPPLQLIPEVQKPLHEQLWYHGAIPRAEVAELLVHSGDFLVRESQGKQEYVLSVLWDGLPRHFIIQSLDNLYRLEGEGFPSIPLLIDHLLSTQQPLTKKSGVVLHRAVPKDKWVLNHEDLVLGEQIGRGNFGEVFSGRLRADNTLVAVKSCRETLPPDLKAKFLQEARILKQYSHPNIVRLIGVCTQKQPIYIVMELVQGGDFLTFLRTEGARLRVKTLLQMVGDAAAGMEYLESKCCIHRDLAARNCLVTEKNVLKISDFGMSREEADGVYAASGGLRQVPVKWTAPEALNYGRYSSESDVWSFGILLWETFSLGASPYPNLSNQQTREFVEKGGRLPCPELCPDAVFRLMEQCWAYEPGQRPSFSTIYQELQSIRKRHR

Row | ΔTm at 10 µM (Haspin) [°C] | ΔTm at 10 µM (MST4) [°C] | ΔTm at 10 µM (NEK11) [°C] | ΔTm at 10 µM (NEK1) [°C] | ΔTm at 10 µM (FES) [°C] | SMILES
1 | 2.3 | 0.7 | 2 | 0.1 | 0.5 | c1cc(-c2cnn3cc(-c4ccc(OCCN5CCCCC5)cc4)cnc23)ccn1 [Dorsomorphin]
2 | 0.3 | 0.2 | 0.3 | 0.2 | 0.4 | COc1cc(-c2cc(-c3cccc(O)c3)cnc2N)cc(OC)c1OC [K02288, 3-[6-amino-5-(3,4,5-trimethoxy-phenyl)-pyridin-3-yl]-phenol]

Row | SMILES | ΔTm at 10 µM (Haspin) [°C] | ΔTm at 10 µM (MST4) [°C] | ΔTm at 10 µM (NEK11) [°C] | ΔTm at 10 µM (NEK1) [°C] | ΔTm at 10 µM (FES) [°C]
3 | c1ccc2c(-c3cnn4cc(-c5ccc(N6CCNCC6)cc5)cnc34)ccnc2c1 [LDN-193189] | 0.4 | 0.8 | -0.3 | 0.2 | 0.4
